# Values joined by “and” are separate entries in the source; they are usually repeats but may differ in a detail not shown here. Equal values may be shown once. ± gives the expanded uncertainty stated by the source.
# What was measured:
# [1] = Liquid, DSC
# [2] = Boiling temperature at pressure P; settings: Liquid, DSC
compound,measurement,setting,value
CCCCCCCCCCCCCCCCCCCCCCCCCCCC [octacosane],vapor or sublimation pressure,[1]; 550.62 K,1.7 ± 0.17 kPa
CCCCCCCCCCCCCC(=O)OC [methyl tetradecanoate],vapor or sublimation pressure,[1]; 437.72 K,1.72 ± 0.19 kPa
CCCCCCCCCCCCCCCCCCO [1-octadecanol],vapor or sublimation pressure,[1]; 483.46 K,1.73 ± 0.19 kPa
CCCCCCCCCCCCCCCCO [1-hexadecanol],vapor or sublimation pressure,[1]; 462.29 K,1.73 ± 0.17 kPa and 1.72 ± 0.17 kPa
"CCCCCCCCC(=O)OCC(O)CO (configuration not stated) [2,3-dihydroxypropyl nonanoate]",vapor or sublimation pressure,[1]; 478.88 K,1.69 ± 0.19 kPa
"CCCC(=O)OCC(COC(=O)CCC)OC(=O)CCC [1,2,3-propanetriyl tributanoate]",vapor or sublimation pressure,[1]; 459.56 K,1.69 ± 0.19 kPa
CCCCCCCCC(=O)OCC(CO)OC(=O)CCCCCCCC (configuration not stated) [dinonanoin],Boiling temperature at pressure P,[2]; 0.54 kPa,231.07 ± 2.4 °C
same,Boiling temperature at pressure P,[2]; 1.42 kPa,253.1 ± 3.1 °C
same,Boiling temperature at pressure P,[2]; 1.74 kPa,258.40 ± 2.4 °C
same,Boiling temperature at pressure P,[2]; 2.14 kPa,263.86 ± 2.6 °C
same,Boiling temperature at pressure P,[2]; 2.63 kPa,269.97 ± 2.8 °C
same,vapor or sublimation pressure,[1]; 532.03 K,1.7 ± 0.19 kPa

# Source: the NIST ThermoML archive (doi:10.1021/acs.jced.8b00168)
